Laboratory results as given in patent EP2902035B1, “Cell-permeable peptide inhibitors of the JNK signal transduction pathway for use in the treatment of inflammatory eye diseases” (Xigen Inflammation Ltd., priority 2010, dated 2012).

What was measured:
Type in all cases: in vivo, Lewis rats
[1] = Ocular biodistribution by immunohistochemistry against SEQ ID NO: 11
Description: (§1) For immunohistochemistry, eyeballs were collected and fixed for 1h at room temperature in phosphate buffered saline (PBS) containing 4% paraformaldehyde before being rinsed overnight in PBS. The next day, samples were embedded and frozen in optimal cutting-temperature (OCT) compound (Tissue-Tek®, Sakura Finetek, Zoeterwoude, Netherland) and stored at -80°C. Frozen antero-posterior sections of eyes (10 µm thick) were performed at the optic nerve level using a cryostat (Leica CM 3050S, Rueil-Malmaison, France) and mounted on super-frost slides for immunohistochemical analysis.
(§2) A second set of experiment was designed to evaluate the anti-inflammatory effect of the JNK-inhibitor (poly-)peptide of SEQ ID NO: 11 at the cellular and tissue level as well as the biodistribution of this molecule 24 hours after administration. Rats were randomized into 11 experimental groups. 6 groups of rats with uveitis: untreated uveitic rats, rats injected intravenously with NaCl or the JNK-inhibitor (poly-)peptide of SEQ ID NO: 11 and rats injected intravitreously with the vehicle, the JNK-inhibitor (poly-)peptide of SEQ ID NO: 11 or dexamethasone. The 5 additional groups without uveitis were: untreated healthy rats, rats treated by NaCl IV or the JNK-inhibitor (poly-)peptide of SEQ ID NO: 11 IV and rats injected IVT with NaCl or the JNK-inhibitor (poly-)peptide of SEQ ID NO: 11. Three eyes from separate rats were collected per group and used for immunohistochemistry.
Immunostaining of the JNK-inhibitor (poly-)peptide of SEQ ID NO: 11 was performed on healthy and uveitic eyes to study its ocular biodistribution after systemic or local administration. Briefly, sections were permeabilized as described above before being sequentially incubated with an anti- SEQ ID NO: 11 purified rabbit IgG and a secondary Alexa 594 (red)-conjugated goat anti-rabbit IgG (Invitrogen, Cergy Pontoise, France) diluted 1:100 and 1:250 in PBS respectively. Immunostaining of untreated healthy and uveitic eyes were used as negative controls. Nuclei were stained with DAPI before mounting and observation.

[2] = system: ED1 positive cells; experiment: Quantification of infiltrating ED1 positive cells on histological sections in EIU; conditions: 24 hours after LPS challenge, mean ± SEM
Description: as §1, §2
(§3) To characterize the cellular infiltrate, sections were double-stained with ED1 and iNOS. […] After staining nuclei with DAPI (Sigma-Aldrich, Saint-Quentin Fallavier, France), sections were mounted in PBS/Glycerol (1/1) and observed by fluorescence photomicroscopy (FXA, Microphot, Nikon, Melville, USA). […] ED1 positive cells and polymorphonuclear cells, identified by the shape of their nuclei stained with DAPI, were quantified on histological sections. […] Results were expressed as mean ± standard error of the mean (SEM).

[3] = system: polymorphonuclear cells (PMN); experiment: Quantification of infiltrating polymorphonuclear cells on histological sections in EIU; conditions: at 24 hours, mean ± SEM
Description: as §1, §2, §3

[4] = system: phospho-p44/42 MAPK (Erk1/2); experiment: Immunohistochemistry of p-Erk1/2 on ocular sections in EIU; conditions: 24h
Description: as §2, with “immunohistochemistry. Immunostaining of p-Erk1/2 was performed to evaluate the effect of the JNK-inhibitor (poly-)peptide of SEQ ID NO: 11 on the ERK pathway after IV or IVT administration. Sections were permeabilized as described above and incubated in blocking solution containing 0.1% Triton X-100 and 10% FCS (fetal calf serum) in PBS for 1 hour at room temperature. […]” for “immunohistochemistry.”

[5] = IVT injection (SEQ ID NO: 11: 0.2 µg/injection)

CC(C)C[C@@H](NC(=O)[C@@H](Cc1ccccc1)NC(=O)[C@H]1CCCN1C(=O)[C@@H](CCC(N)=O)NC(=O)[C@H](NC(=O)[C@H]1CCCN1C(=O)[C@@H](CCCNC(=N)N)NC(=O)[C@@H](CO)NC(=O)[C@@H](CCC(N)=O)NC(=O)[C@H](N)CC(=O)O)C(C)C)C(=O)N[C@H](CC(N)=O)C(=O)N[C@H](CC(C)C)C(=O)N[C@@H](C(=O)N[C@@H](C(=O)N1CCC[C@@H]1C(=O)N[C@H](CCCNC(=N)N)C(=O)N[C@H](CCCCN)C(=O)N1CCC[C@@H]1C(=O)N[C@H](CCCNC(=N)N)C(=O)N1CCC[C@@H]1C(=O)N1CCC[C@@H]1C(=O)N[C@H](CCCNC(=N)N)C(=O)N[C@H](CCCNC(=N)N)C(=O)N[C@H](CCCNC(=N)N)C(=O)N[C@H](CCC(N)=O)C(=O)N[C@H](CCCNC(=N)N)C(=O)N[C@H](CCCNC(=N)N)C(=O)N[C@H](CCCCN)C(=O)N[C@H](CCCCN)C(=O)N[C@H](CCCNC(=N)N)C(=O)NCC(=O)O)[C@H](C)O)[C@H](C)O [SEQ ID NO: 11]
detection of the peptide in ocular tissues ([1]; EIU eyes, 24 hours after IV injection): not detected
detection of the peptide in infiltrating inflammatory cells (iris, aqueous humor) ([1]; EIU eyes, 24 hours after IV injection, occasional cells): immunopositive
subcellular localisation of the peptide ([1]; all cell types, normal eyes after IVT administration): accumulated within the cytoplasm
immunoreactivity of the peptide in ocular tissues ([1]; normal eyes, 24 hours after systemic (IV) injection, 20 µg/kg): no signal was observed
distribution of the peptide in ocular tissues ([1]; normal rats, 24 hours after IVT administration, 0.2 µg/injection): distributed in almost all ocular tissues
distribution of the peptide in ocular tissues and resident cells ([1]; uveitic eyes, 24 hours after IVT injection): mostly found in ocular tissues like in healthy eyes and in resident cells
number of ED1 positive cells ([2]; IV injection (20 µg/kg)): 137 ± 7
number of ED1 positive infiltrating cells [2, 5]: 93 ± 8
number of polymorphonuclear cells (PMN) ([3]; IV administration (20 µg/kg)): 60 ± 6
number of polymorphonuclear cells (PMN) [3, 5]: 40 ± 5
effect on p-Erk1/2 signal in the iris epithelium ([4]; iris epithelium): no effect
effect on p-Erk1/2 in retinal Müller glial (RMG) cells ([4]; neuroretina, administered by either route (IV or IVT)): no effect
